Results filed as inconclusive are left out. Peptide text beside a SMILES is read from it.
Tested on: mutant SOD1 toxicity cell model, protection read-out
Assay: cell protection against mutant SOD1 damage (AID 1602)

In order of rising EC50:
1. Nc1ccc(S(N)(=O)=O)cc1  50 µM
2. CC(CCc1ccccc1)NCC(O)c1ccc(O)c(C(N)=O)c1 (centres undefined)  50 µM
3. O=C1NCC2(CCN(CCc3ccccc3)CC2)O1  50 µM
4. Cc1ccc(C(=O)C(C)CN2CCCCC2)cc1 (centres undefined)  50 µM
5. CN1C2CCC1CC(OC(=O)C(CO)c1ccccc1)C2 (centres undefined)  50 µM
6. CCN1CCN(C(=O)NC(C(=O)NC2C(=O)N3C(C(=O)O)=C(CSc4nnnn4C)CSC23)c2ccc(O)cc2)C(=O)C1=O (centres undefined)  50 µM
7. Nc1ccc(S(=O)(=O)Nc2nccs2)cc1  50 µM
8. CC(=O)OCC1=C(C(=O)O)N2C(=O)[C@@H](NC(=O)CSc3ccncc3)[C@H]2SC1  50 µM
9. C[C@H](CCC(=O)O)[C@H]1CCC2C3C(=O)CC4CC(=O)CC[C@]4(C)C3CC(=O)[C@@]21C (some centres undefined)  50 µM
10. COC(=O)C1[C@H]2C[C@H]3c4[nH]c5ccccc5c4CCN3C[C@@H]2CC[C@@H]1O (some centres undefined)  50 µM
11. NC(N)=NC(N)=Nc1ccccc1  50 µM
12. Cc1ccc(/C(=C\CN2CCCC2)c2ccccn2)cc1  50 µM
13. CC(COc1ccccc1)NC(C)[C@H](O)c1ccc(O)cc1 (some centres undefined)  50 µM
14. NCCCC(=O)O  50 µM
15. CN[C@H](CC(=O)O)C(=O)O  50 µM
16. CNCCc1ccccn1  50 µM
17. CN(C)CCOC(=O)C(c1ccccc1)C1(O)CCCC1 (centres undefined)  50 µM
18. c1ccc2c(CC3=NCCN3)cccc2c1  50 µM
19. CC[N+]1(C)CCCC(OC(=O)C(O)(c2ccccc2)c2ccccc2)C1 (centres undefined)  50 µM
20. CC(=O)N[C@@H](CS)C(=O)O  50 µM
21. CCN1C[C@@]2(COC)C3[C@@H](OC)[C@H]4[C@@H]1[C@]3(C(OC)C[C@H]2O)C1C[C@@]2(O)[C@H](OC(=O)c3ccccc3)C1[C@]4(OC(C)=O)[C@@H](O)[C@@H]2OC (some centres undefined)  50 µM
22. Cn1nnnc1SCC1=C(C(=O)O)N2C(=O)C(NC(=O)C(OC=O)c3ccccc3)C2SC1 (centres undefined)  50 µM
23. NC[C@@H]1O[C@H](O[C@@H]2[C@@H](CO)OC(O[C@@H]3[C@@H](O)[C@H](N)C[C@H](N)[C@H]3OC3O[C@H](CN)[C@@H](O)[C@H](O)[C@H]3N)[C@@H]2O)[C@H](N)[C@@H](O)[C@@H]1O (some centres undefined)  50 µM
24. CC(=O)Nc1cc([As](=O)(O)O)ccc1O  50 µM
25. CC(C)CC1NC(=O)CNC1=O (centres undefined)  50 µM
26. CO/N=C(/C(=O)NC1C(=O)N2C(C(=O)O)=C(COC(N)=O)CSC12)c1ccco1 (centres undefined)  50 µM
27. CC(C(=O)O)c1cccc(C(=O)c2ccccc2)c1 (centres undefined)  75 µM
28. C[C@H](CS)C(=O)N1CCC[C@H]1C(=O)O  75 µM
29. CCn1cc(C(=O)O)c(=O)c2cc(F)c(N3CCNCC3)cc21  75 µM
30. O=C(O)c1ccccc1OP(=O)(O)O  75 µM
31. CO/N=C(\C(=O)NC1C(=O)N2C(C(=O)O)=C(CSc3nc(=O)c(O)nn3C)CS[C@H]12)c1csc(N)n1 (some centres undefined)  75 µM
32. COc1c2occc2c(OC)c2c(=O)cc(C)oc12  75 µM
33. NCCCCC(N)C(=O)NC(Cc1ccc(O)cc1)C(=O)NC(CCCCN)C(=O)O (stereo not drawn) (H-Lys-Tyr-Lys-OH; configuration not given here)  75 µM
34. NC(N)=O  75 µM

— PubChem BioAssay AID1602 (NINDS Approved Drug Screening Program, 2009)
